Laboratory results from patent publication US7332495B2 (priority 2002, dated 2008).
Counter-ions that a name gives are not always drawn.

How the values were obtained:
[1] = tested on: Kunming mice; experiment: Mice writhing model (acetic acid); assay type: in vivo; settings: i.p. 20 mg/Kg, acetic acid 0.7% i.p. after 30 minutes, writhes in 5 minutes; for inhibition in vivo at 20 mg/kg: Mus musculus, ip, read-out: Analgesia (inhibition ratio of writhing)
Procedure: (§1) Kunming mice were used, with a male-female ratio of 50-50%. The test compound is administered i.p. (20 mg/Kg body weight) to the test groups, and physiological saline is administered P.O. (20 ml/Kg body weight) to the control group. After 30 minutes, acetic acid (0.7%, […] i.p.) was injected and the number of writhes was observed during a 5-minute period after acetic acid administration. The inhibition ratio of the writhing threshold was calculated. The alternating current tube is used to record the spontaneous activities for measuring sedation.
Two species of animals (mice and rats) and four types of pain testing models (i.p. 0.7% acetic acid, s.c. 5% formalin, hot plate 55° C., focused radiant heat) were used.

[2] = tested on: Kunming mice; experiment: Sedation: spontaneous activities recorded with alternating current tube; assay type: in vivo; settings: i.p. 20 mg/Kg, spontaneous activities; for inhibition in vivo at 20 mg/kg: Mus musculus, ip
Procedure: as §1, with “The test compound is administered i.p. (20 mg/Kg body weight) to the test groups, and physiological saline is administered P.O. (20 ml/Kg body weight) to the control group.” left out

SMILES | inhibition in vivo at 20 mg/kg [1] | inhibition in vivo at 20 mg/kg [2] | melting point | Analgesia (inhibition ratio of writhing) [1] | Sedation [2]
CC(=O)Nc1ccc(C(=O)CN2CCN(Cc3ccccc3)CC2)cc1 [IV-55, N^1-benzyl-N^4-(4-acetamidophenacyl)piperazine] | 21% | 52% | – | – | –
COc1ccc([N+](=O)[O-])cc1CN1CCN(CC(=O)c2ccccc2)CC1 [IV-23, N^1-(2-methoxy-5-nitrobenzyl)-N^4-phenacyl piperazine] | 87% | 96% | – | – | –
COc1cc(CN2CCN(C(C)C(=O)c3ccc4c(Cl)c(OC)ccc4c3)CC2)cc(OC)c1OC (stereo not shown) (as salt: hydrochloride) | – | – | 219 to 222 °C | – | –
O=C(CCN1CCN(Cc2ccccc2)CC1)c1ccccc1 [IV-17, N^1-benzyl-N^4-(2-benzoylethyl)piperazine] | 45% | 75% | – | – | –
O=C(CN1CCN(Cc2ccc3ccccc3c2)CC1)c1ccccc1 [IV-59, N^1-(2-naphthalenylmethyl)-N^4-phenacyl piperazine] | 45% | 0% | – | – | –
Cc1ccc(C(=O)CN2CCN([C@H](C)c3ccccc3)CC2)cc1 (as salt: hydrochloride) [IV-41, N^1—(R-1-phenylethyl)-N^4-(4-methylphenacyl)piperazine] | – | – | 231 to 232 °C | – | –
Cc1ccc(C(=O)CN2CCN([C@@H](C)c3ccccc3)CC2)cc1 [IV-42, N^1-(S-1-phenylethyl)-N^4-(4-methylphenacyl)piperazine] | – | – | – | 44% | 0%
COc1ccc2cc(C(=O)C(C)N3CCN(C(C)c4ccccc4)CC3)ccc2c1Cl (stereo not shown) [IV-43, N^1-(1-phenylethyl)-N^4-[1-(5-chloro-6-methoxy-2-naphthoyl)ethyl]piperazine] | 42% | 4% | – | – | –
COc1ccc(C(=O)CN2CCN(CCC(O)c3ccccc3)CC2)cc1 (stereo not shown) [IV-22, N^1-(3-phenylpropyl-3-ol)-N^4-(4-methoxyphenacyl)piperazine] | – | – | – | 100% | 84%
O=C(CN1CCN(Cc2ccccc2)CC1)c1ccc(Cl)cc1 [IV-6, N^1-benzyl-N^4-(4-chlorophenacyl)piperazine] | 43% | 73% | – | – | –
CC(C(=O)c1ccccc1)N1CCN(Cc2ccc([N+](=O)[O-])cc2)CC1 (stereo not shown) [IV-47, N^1-(4-nitrobenzyl)-N^4-(1-benzoylethyl)piperazine] | 28.8% | 26.4% | – | – | –
CCOC(=O)C(c1ccccc1)N1CCN(CC(=O)c2ccccc2)CC1 (stereo not shown) [IV-5, N^1-[(1-ethoxy-oxo-methyl)benzyl]-N^4-phenacyl piperazine] | – | – | – | 14% | 44%
COc1ccc(CN2CCN(C(C)C(=O)c3ccc4c(Cl)c(OC)ccc4c3)CC2)cc1 (stereo not shown) [IV-31, N^1-(4-methoxybenzyl)-N^4-[1-(5-chloro-6-methoxy-2-naphthoyl)ethyl]piperazine] | 45% | 7% | – | – | –
COc1ccc(OC)c(CN2CCN(CC(=O)c3ccccc3)CC2)c1 [IV-15, N^1-(2,5-dimethoxybenzyl)-N^4-phenacyl piperazine] | 80% | 93% | – | – | –
O=C(CN1CCN(Cc2ccc(Cl)cc2)CC1)c1ccccc1 [IV-3, N^1-(4-chlorobenzyl)-N^4-phenacyl piperazine] | 56.6% | 70.8% | – | – | –
O=C(CN1CCN(Cc2ccccc2)CC1)c1ccccc1 [IV-1, N^1-benzyl-N^4-phenacyl piperazine] | 68.2% | 65.6% | – | – | –
C[C@H](c1ccccc1)N1CCN(CC(=O)c2ccccc2)CC1 [IV-38, N^1—(R-1-phenylethyl)-N^4-phenacyl piperazine] | 51% | 99% | – | – | –

SMILES | inhibition in vivo at 20 mg/kg [1] | inhibition in vivo at 20 mg/kg [2] | melting point | Analgesia (inhibition ratio of writhing) [1] | Sedation [2]
O=C(CN1CCN(Cc2ccc([N+](=O)[O-])cc2)CC1)c1ccccc1 [IV-4, N^1-(4-nitrobenzyl)-N^4-phenacyl piperazine] | 93.2% | 39.6% | – | – | –
O=C(CN1CCN(Cc2cccc3ccccc23)CC1)c1ccccc1 [IV-58, N^1-(1-naphthalenylmethyl)-N^4-phenacyl piperazine] | – | – | – | 49% | 32%
C[C@@H](c1ccccc1)N1CCN(CC(=O)c2ccccc2)CC1 [IV-39, N^1-(S-1-phenylethyl)-N^4-phenacyl piperazine] | – | – | – | 42% | 35%
O=C(CN1CCN(Cc2cccnc2)CC1)c1ccccc1 [IV-11, N^1-(3-pyridylmethyl)-N^4-phenacyl piperazine] | 86% | 91% | – | – | –
Nc1ccc(C(=O)CN2CCN(Cc3ccccc3)CC2)cc1 [IV-16, N^1-benzyl-N^4-(4-aminophenacyl)piperazine] | 63% | 51% | – | – | –
CC(C(=O)c1ccccc1)N1CCN(Cc2ccc(N)cc2)CC1 (stereo not shown) [IV-13, N^1-(4-aminobenzyl)-N^4-(1-benzoylethyl)piperazine] | 100% | 86% | – | – | –
CC(=O)Nc1ccc(C(=O)CN2CCN(Cc3ccc([N+](=O)[O-])cc3)CC2)cc1 [IV-18, N^1-(4-nitrobenzyl)-N^4-[(4-acetamido)phenacyl]piperazine] | 64% | 65% | – | – | –
O=C(CN1CCN(Cc2ccc(F)cc2)CC1)c1ccc(Cl)cc1 [IV-20, N^1-(4-fluorobenzyl)-N^4-(4-chlorophenacyl)piperazine] | 45% | 60% | – | – | –
Cc1ccc(C(=O)CN2CCN([C@H](C)c3ccccc3)CC2)cc1 [IV-41, N^1—(R-1-phenylethyl)-N^4-(4-methylphenacyl)piperazine] | 60% | 72% | – | – | –
O=C(CN1CCN(Cc2ccc([N+](=O)[O-])cc2)CC1)NCc1ccccc1 [IV-62, N^1-(4-nitrobenzyl)-N^4-[2-(benzylamino)-2-oxo-ethyl]piperazine] | 64% | 42% | – | – | –
CC(c1ccc([N+](=O)[O-])cc1)N1CCN(CC(=O)c2ccccc2)CC1 (stereo not shown) [IV-60, N^1-[1-(4-nitrophenyl)ethyl]-N^4-phenacyl piperazine] | 37% | 66% | – | – | –
O=C(CN1CCN(Cc2ccccc2)CC1)c1ccc([N+](=O)[O-])cc1 [IV-9, N^1-benzyl-N^4-(4-nitrophenacyl)piperazine] | 74% | 32% | – | – | –
CCC(c1ccccc1)N1CCN(CC(=O)c2ccccc2)CC1 (stereo not shown) [IV-61, N^1-(1-phenylpropyl)-N^4-phenacyl piperazine] | 6% | 56% | – | – | –
COc1ccc(C(=O)CN2CCN(Cc3ccccc3)CC2)cc1 [IV-8, N^1-benzyl-N^4-(4-methoxyphenacyl)piperazine] | 39% | 64% | – | – | –
CC(c1ccc(F)cc1)N1CCN(CC(=O)c2ccccc2)CC1 (stereo not shown) [IV-24, N^1-[1-(4-fluorophenyl)ethyl]-N^4-phenacyl piperazine] | 64% | 47% | – | – | –
O=C(CN1CCN(Cc2ccccc2)CC1)c1ccc2ccccc2c1 [IV-7, N^1-benzyl-N^4-(2-naphthoylmethyl)piperazine] | 25% | 43% | – | – | –
